In patent US20240156822A1, “Methods For Treatment of Vitiligo” (Pfizer Inc., priority 2022, published 2024):

Tested on: vitiligo
Test: Clinical study of treatment of vitiligo: central read facial-VASI (primary efficacy endpoint)
Assay type: in vivo, human
Conditions: for Placebo-adjusted LS mean CFB (SE); % CFB in Central F-VASI at Week 24: oral once daily
Procedure: Subjects take the medication set forth herein orally once daily, and typically swallow the tablets whole with approximately one cup of ambient temperature water, without any manipulation or chewing. Dosing regimes include induction dosing of 100 or 200 mg and maintenance dosing of 50 mg, or a 24-week Treatment Period in which participants were treated with ritlecitinib 50 mg, 30 mg, or 10 mg. The induction period is an initial period of treatment of 4 weeks in the initial clinical trial. The maintenance period is 20 weeks Tablets may be taken with or without food. Subject response is evaluated at regular intervals after administration. The Vitiligo Area Scoring Index (VASI) is a validated quantitative scale, initially developed to measure the response of vitiligo to nbUVB treatment, but has since been used to evaluate various therapies for vitiligo. Clinical evaluations of vitiligo in this study include VASI, central read and site assessment of facial-VASI, static Investigator Global Assessment (sIGA), Body Surface Area (BSA) involvement, Vitiligo Extent Score (VES), and dermoscopy. Self-Assessment VES (SA-VES), Vitiligo Specific Quality of Life (VitiQoL), Dermatology Life Quality Index (DLQL), Hospital Anxiety and Depression Scale (HADS), Patient Global Impression of Change Vitiligo (PGIC-V), EQ-5D-5L, Healthcare Resource Utilization (HCRU) and Vitiligo Noticeability Scale (VNS). (b) Facial Vitiligo Area Scoring Index (Facial-VASI)—Central Read The central read facial-VASI are assessed based on the facial photographs taken at the site by a central reader. Clinical Trial Imaging Endpoint Process Standards—Guidance for Industry (April 2018). The central read facial-VASI is calculated using a formula that includes contribution of affected facial surface areas showing all six (6) different depigmentation rates (0.1, 0.25, 0.5, 0.75, 0.9 and 1) with a modified method described by Hamzavi et al. Hamzavi, I., […] The calculation of % affected total body surface area (BSA) is shown below: • Affected Facial Surface Area×4=% Affected Total Body Surface Area. Face is defined as the area from the hairline on top of the forehead to the jawline at the bottom of the cheeks. Facial-VASI (central read) will range from 0.000 to 4.000 by defining the affected Facial Surface Area (expressed as the value between 0.0 to 1.0) being 4% of total Body Surface Area. For example: 25% affected Facial Surface Area (0.25) represents 1% total body surface area (0.25×4). 15% affected Facial Surface Area (0.15) represents 0.6% total body surface area (0.15×4). The extent of depigmentation is expressed by the following percentages: 0, 10%, 25%, 50%, 75%, 90%, or 100%. At 100% depigmentation, no pigment is present; at 90%, specks of pigment are present; at 75%, the depigmented exceeded the pigmented area; at 50%, the depigmented and pigmented areas are equal; at 25%, the pigmented area exceeded the depigmented area; and at 10%, only specks of depigmentation are present. Scalp, neck, eyebrows, eyelashes, and vermilion are excluded from this calculation, although total VASI assessment includes all of these regions.

SMILES: C=CC(=O)N1C[C@H](Nc2ncnc3[nH]ccc23)CC[C@@H]1C [Ritlecitinib, 1-[(2S,5R)-2-methyl-5-(7H-pyrrolo[2,3-d]pyrimidin-4-ylamino)-1-piperidinyl]-2-propen-1-one]
- Efficacy criterion for the primary endpoint (% CFB in Central F-VASI at Week 24) (initial clinical studies): met the efficacy criterion for the primary endpoint
- Placebo-adjusted LS mean CFB (SE); % CFB in Central F-VASI at Week 24 (treatment group 10 mg, 24-week treatment period): −4.13%
- Placebo-adjusted LS mean CFB (SE); % CFB in Central F-VASI at Week 24 (treatment group 30 mg, 24-week treatment period): −16.93%
- Placebo-adjusted LS mean CFB (SE); % CFB in Central F-VASI at Week 24 (treatment group 50 mg, 24-week treatment period): −22.05%
- Placebo-adjusted LS mean CFB (SE); % CFB in Central F-VASI at Week 24 (treatment group 100/50 mg (induction 100 mg 4 weeks, maintenance 50 mg 20 weeks)): −22.99%
- Placebo-adjusted LS mean CFB (SE); % CFB in Central F-VASI at Week 24 (treatment group 200/50 mg (induction 200 mg 4 weeks, maintenance 50 mg 20 weeks)): −23.62%
